Legend:
C6 cells (rat glioma) = assay: In vitro inhibition of CHP-induced oxidative stress (DCF fluorescence) in C6 cells; assay type: cell-based; conditions: 500 µM CHP, compound 4, 20, 100 and 500 µM, 30 minutes at 37 °C, range given for both cell lines together
Protocol: (§1) The method used was essentially the one reported by Rüweler M. et al. ("Inhibition of peroxide-induced radical generation by plant polyphenols in C6 astroglioma cells" (2008) Toxicol in vitro 22, 1377-81), with a few minor modifications.
(§2) The cells were seeded in phenol-red free DMEM (Sigma Aldrich) into 96-well plates with 5% FBS and 20 mM HEPES at a density of 40,000 cells/well. After 48 hours, the medium was substituted by HBSS (Hanks' Balanced Salt Solution, Sigma) containing 10 µM of dihydro-2',7'-dichlorofluorescein diacetate (H2DCF-DA, Sigma Aldrich) and incubated in darkness for 30 minutes at 37 °C, in order to load the cells with fluorescent dye. H2DCF-DA was hydrolyzed enzymatically by the intracellular esterases to form non-fluorescent H2DCF, which was then rapidly oxidized to form 2',7'-dichlorofluorescein (DCF) being highly fluorescent in the presence of reactive species (RS). The intensity of DCF fluorescence is directly proportional to the amount of RS formed.
(§3) After carrying out two washes, the cells were exposed to 500 µM of CHP and various concentrations (4, 20, 100 and 500 µM) of the compounds of the invention for 30 minutes at 37 °C. Fluorescence was then measured, after cell washing, by a microplate reader at an excitation wavelength of 485 nm and an emission wavelength of 535 nm.
(§4) Six wells per plate per concentration of test composition (compound + CHP) and per control (HBSS without CHP) were measured and 12 wells were used as reference for CHP-induced stress. In addition, each 96-well plate contained 6 wells that received the highest concentration of the tested compounds without CHP, to investigate whether the compounds of the invention alone were able to induce cellular radical formation.
(§5) When using this assay, it should be borne in mind that DCF fluorescence is a generalized indicator of oxidative stress rather than of any particular reactive species, i.e. it is not a direct assay for H2O2 or other reactive species (Halliwell B, Whiteman M. (2004) "Measuring reactive species and oxidative damage in vivo and in cell culture: how should you do it and what do the results mean?" Br. J. Pharmacol. 142 231-255). Therefore, when an increase in DCF fluorescence induced by exposure of cells to CHP was measured, as was undertaken in these assays, it was not possible to deduce which reactive species was responsible. Inhibition of CHP-induced fluorescence was evaluated by means of different concentrations of the compounds of the invention and comparative compounds such as Trolox and edaravone.

[1] = tested on: BAEC cells (bovine aortic endothelial); assay: In vitro inhibition of CHP-induced oxidative stress (DCF fluorescence) in BAEC cells; assay type: cell-based; conditions: 500 µM CHP, compound 4, 20, 100 and 500 µM, 30 minutes at 37 °C, range given for both cell lines together
Protocol: as §1, §2, §3, §4, §5

[2] = TEAC method (Trolox Equivalent Antioxidant Capacity Assay); conditions: ratio of gradient to gradient of reference (trolox); 37 °C, 650 nm, pH 4.5
From the text: This assay is used to measure the total antioxidant activity of pure substances, biological fluids and plant compounds and is based on the reaction of antioxidants with the cation radical ABTS^˙+ (2,2'-azinobis(3-ethylbenzothiazolin-6-sulphonate)). This cation radical is metastable and has to be generated just before the experiment by reacting ABTS with hydrogen peroxide in the presence of HRP.
This radical can be reduced, with consequent loss of absorbance, by an antioxidant whose scavenging capacity can be measured spectrophotometrically at 650 nm. The test is carried out at 37 °C and the results are obtained from a comparison with Trolox (a synthetic antioxidant and hydrophilic analogue of vitamin E).
The ABTS solution S1 was prepared as follows: • 20 mg of ABTS were added to 50 mM of citric acid buffer (40 ml) at pH=4.5 and to the resulting solution there was added an aqueous solution of HRP (4.4 mg, 400 µl) and an aqueous solution of H2O2 (10 µl of a 30% solution diluted with 16.3 ml of water).
For each of the compounds (2), (6) and (7), as synthesized above, there was prepared a 600 µM solution in water, methanol or DMSO according to its solubility, as well as a Trolox solution as reference.
Each solution was diluted to produce 6 solutions each at a concentration between 25 µM and 300 µM. From each of the diluted and divided solutions, there were withdrawn 20 µl to which 200 µl of solution S1 were then added.
The decrease in absorbance of each solution thus obtained was monitored at 650 nm until a stable value was reached (about 90 minutes).
For each set of 6 solutions and for the reference trolox solution, the absorption was given in graph form as a function of the amount of compound (nmol) in the solution. The gradient of the straight line obtained by linear interpolation was determined according to the least squares method. The TEAC value of each compound of the invention is given in the table below and is expressed as the ratio between the gradient of the resulting straight line and the gradient of the reference (trolox) straight line.

[3] = tested on: cerebral oxidative stress induced in mice by doxorubicin; assay: In vivo assay of cerebral oxidative stress induced in mice by doxorubicin
Protocol: The assay was carried out on compounds (1) and (3)-(6) and on edaravone (E) as comparative compound.
10 mice were used for each treatment group. For each compound 50 mg/kg were administered intraperitoneally (IP) for three consecutive days (day 0, 1 and 2); half the animals (5) also received IP 16.7 mg/kg of doxorubicin immediately after the first treatment (day 0). On the day after the last administration (day 3) the animals were killed by neck dislocation and the brains were removed, weighed and frozen in liquid nitrogen.
For the analyses of oxidative stress, 100 mg/ml of brain homogenate was prepared in Hebe buffer (pH 7.4 EDTA/HEPES^(**)) containing a mixture of enzyme inhibitors (Leupeptin, Pepstatin, Aprotinin, BHA). • ^(*) Hypotonic Extraction Buffer • ^(**) 4-2-hydroxyethyl-1-piperazinyl-ethanesulphonic acid
The evaluation parameters were: • BrW/BWi: ratio between final brain weight and initial body weight (day 0); • Prot. Hmg: total proteins in the homogenate (BCA method, i.e. bicinchoninic acid); • Prot. Ox: oxidized proteins in the Hmg by means of a colorimetric method using […] (DNPH); • GSH: reduced glutathione in the supernatant (sn) of the Hmg, obtained after precipitation with metaphosphoric acid (MPA), by means of a colorimetric method using […] (DTNB); • CAT: catalase in the Hmg by a colorimetric method using potassium dichromate; • SOD: superoxide dismutase by a colorimetric method using SOD Reagent (xanthine, EDTA, nitroblue tetrazole, Na2CO3, BSA, i.e. bovine serum albumin); • GST: glutathione S-transferase in the supernatant by a colorimetric method using chlorodinitrobenzene (CDNB) and GSH; and • GPx: glutathione peroxidase in the supernatant after addition of GSH and tert butyl hydroperoxide (t-BuOOH), heating and precipitation with MPA; followed by GSH method with DTNB.
All the parameters, with the exclusion of Brain/BWi and Prot. Hmg, were normalized for total Hmg proteins (Table 3). The D value standard deviations and the % incidence relative to V are given in italics.
The mean % effect, on all the parameters simultaneously, of the triple treatment in the healthy animals, as mean percentage variation relative to the vehicle (table 4). This value is useful as an approximate safety index of the oxidative state of the brain, i.e. the capacity of the compounds of the invention not to alter cerebral homeostasis in healthy animals.
The effect of the tested compounds on the "oxidized" animals was given as % inhibition relative to the percentage variation due to doxorubicin alone. The effect of the compounds on the oxidized animals can be expressed both as a function of the values of the vehicle (healthy, vehicle only) and as a function of the value of its own control (healthy, compound only): • Vehicle: percentage [(Compound+D)/V]x100/[(V+D)/V]x100 • Its own: percentage [(Compound+D)/Compound]x100/[(V+D)/V]x100

[4] = % variation relative to the vehicle, healthy animals, 50 mg/kg IP x3 days (D = doxorubicin alone)

Row | Compound | Inhibition of CHP-induced fluorescence (C6 cells (rat glioma)) | Inhibition of CHP-induced fluorescence [1] | TEAC [2] | Brain/BWi [3, 4] [%] | CAT/pr [3, 4] [%] | GPX/pr [3, 4] [%] | GSH/pr [3, 4] [%] | GST/pr [3, 4] [%] | Prot. Hmg [3, 4] [%] | Prot. Ox/pr [3, 4] [%] | SOD/pr [3, 4] [%] | overall inhibitory effect on the doxorubicin-induced oxidation ([3]; both with respect to the Vehicle and Its own) | Mean % variation relative to the vehicle ([3]; healthy animals, 50 mg/kg IP days 0, 1 and 2, mean over all parameters, approximate safety index (D = doxorubicin alone), 50 mg/kg) [%]
1 | Cc1c(C)c2c(c(C)c1O)CCC(C)(C(=O)O)O2 (stereo not drawn) [Trolox, reference compound] | 10-50% | 10-50% | – | – | – | – | – | – | – | – | – | – | –
2 | CC1=NN(c2ccccc2)C(=O)C1 [edaravone, reference compound] | 10-50% | 10-50% | 0.9 | 2.7 | -5.0 | -6.7 | -5.5 | -3.1 | 3.7 | -2.3 | -2.2 | about 75% | -2.7

Source: EP2371816A1, “Aminocyclohexenone, their preparation and use as medicament against oxidative stress” (ABIOGEN PHARMA S.p.A., priority 2010, dated 2011)
